Laboratory results published in PMC12669040, “Tumour-specific STING agonist synthesis via a two-component prodrug system” (Nature Chemistry, 2025).
“And” between values parts separate entries of the source, which are not always exact repeats. Equal values may be shown once.

Key:
[1] = Colorimetric alkylation rate constant assay with TNB^2− as non-specific thiol; type: physicochemical; set-up: second-order: unit not given here; conditions: for remaining [B]: in µM
[2] = Colorimetric alkylation rate constant assay with thiol N1; type: physicochemical; conditions: for remaining [A]: N1 from calibration curve (N1 in uM); for remaining [A] / remaining [B]: in µM
[3] = Time 2891 sec, [B]0 = 250, Replicates 1-3
[4] = Time 3071 sec, [B]0 = 250, Replicates 1-3
[5] = Time 3252 sec, [B]0 = 250, Replicates 1-3
[6] = Time 3433 sec, [B]0 = 250, Replicates 1-3
[7] = Time 3613 sec, [B]0 = 250, Replicates 1-3

remaining [B] ([1]; Replicate 1, 723 sec, [B]0 = 250): 246.895
remaining [B] ([1]; Replicate 1, 903 sec, [B]0 = 250): 246.517
remaining [B] ([1]; Replicate 1, 1084 sec, [B]0 = 250): 246.063
remaining [B] ([1]; Replicate 1, 1265 sec, [B]0 = 250): 245.71
remaining [B] ([1]; Replicate 1, 1445 sec, [B]0 = 250): 245.231
remaining [B] ([1]; Replicate 1, 1626 sec, [B]0 = 250): 244.866
remaining [B] ([1]; Replicate 1, 1806 sec, [B]0 = 250): 244.513
remaining [B] ([1]; Replicate 1, 1988 sec, [B]0 = 250): 243.833
remaining [B] ([1]; Replicate 1, 2168 sec, [B]0 = 250): 243.543
remaining [B] ([1]; Replicate 1, 2349 sec, [B]0 = 250): 242.9
remaining [B] ([1]; Replicate 1, 2530 sec, [B]0 = 250): 242.61
remaining [B] ([1]; Replicate 1, 2710 sec, [B]0 = 250): 242.169
remaining [B] ([1]; Replicate 2, 542 sec, [B]0=250): 248.022
remaining [B] ([1]; Replicate 2, 723 sec, [B]0=250): 247.165
remaining [B] ([1]; Replicate 2, 903 sec, [B]0=250): 246.925
remaining [B] ([1]; Replicate 2, 1084 sec, [B]0=250): 246.522
remaining [B] ([1]; Replicate 2, 1265 sec, [B]0=250): 246.258
remaining [B] ([1]; Replicate 2, 1445 sec, [B]0=250): 245.88
remaining [B] ([1]; Replicate 2, 1626 sec, [B]0=250): 245.262
remaining [B] ([1]; Replicate 2, 1806 sec, [B]0=250): 245.073
remaining [B] ([1]; Replicate 2, 1988 sec, [B]0=250): 244.304
remaining [B] ([1]; Replicate 2, 2168 sec, [B]0=250): 244.191
remaining [B] ([1]; Replicate 2, 2349 sec, [B]0=250): 243.649
remaining [B] ([1]; Replicate 2, 2530 sec, [B]0=250): 243.511
remaining [B] ([1]; Replicate 2, 2710 sec, [B]0=250): 243.032
remaining [B] ([1]; Replicate 3, 723 sec, [B]0=250): 248.495
remaining [B] ([1]; Replicate 3, 903 sec, [B]0=250): 247.89
remaining [B] ([1]; Replicate 3, 1084 sec, [B]0=250): 247.373
remaining [B] ([1]; Replicate 3, 1265 sec, [B]0=250): 246.731
remaining [B] ([1]; Replicate 3, 1445 sec, [B]0=250): 246.365
remaining [B] ([1]; Replicate 3, 1626 sec, [B]0=250): 245.899
remaining [B] ([1]; Replicate 3, 1806 sec, [B]0=250): 245.521
remaining [B] ([1]; Replicate 3, 1988 sec, [B]0=250): 245.08
remaining [B] ([1]; Replicate 3, 2168 sec, [B]0=250): 244.563
remaining [B] ([1]; Replicate 3, 2349 sec, [B]0=250): 244.16
remaining [B] ([1]; Replicate 3, 2530 sec, [B]0=250): 243.744
remaining [B] ([1]; Replicate 3, 2710 sec, [B]0=250): 243.505
remaining [B] [1, 3]: 243.089 and 241.779 and 242.654
remaining [B] [1, 4]: 242.547 and 241.413 and 242.377
remaining [B] [1, 5]: 242.194 and 241.111 and 242.036
remaining [B] [1, 6]: 241.728 and 240.556 and 241.482
remaining [B] [1, 7]: 241.426
remaining [A] ([2]; Replicate 1, time 576 sec): 47.8044
remaining [B] ([2]; Replicate 1, time 576 sec, [B]0 = 250): 193.684
remaining [A] ([2]; Replicate 1, time 606 sec): 46.4649
remaining [B] ([2]; Replicate 1, time 606 sec, [B]0 = 250): 192.345
remaining [A] ([2]; Replicate 2, time 576 sec): 30.5226
remaining [B] ([2]; Replicate 2, time 576 sec, [B]0=250): 177.381
remaining [A] ([2]; Replicate 2, time 606 sec): 29.3038
remaining [B] ([2]; Replicate 2, time 606 sec, [B]0=250): 176.162
remaining [A] ([2]; Replicate 3, time 576 sec): 37.5866
remaining [B] ([2]; Replicate 3, time 576 sec, [B]0=250): 183.039
remaining [A] ([2]; Replicate 3, time 606 sec): 36.1527
remaining [B] ([2]; Replicate 3, time 606 sec, [B]0=250): 181.605
remaining [B] ([2]; time 0 sec, [B]0 = 250, replicates 1-3): 244.616 and 236.007 and 232.398
remaining [B] ([2]; time 30 sec, [B]0 = 250, replicates 1-3): 239.016 and 232.843 and 226.134
remaining [B] ([2]; time 60 sec, [B]0 = 250, replicates 1-3): 231.981 and 229.623 and 220.975
remaining [B] ([2]; time 91 sec, [B]0 = 250, replicates 1-3): 228.545 and 226.744 and 217.517
remaining [B] ([2]; time 121 sec, [B]0 = 250, replicates 1-3): 224.298 and 223.153 and 210.771
remaining [B] ([2]; time 151 sec, [B]0 = 250, replicates 1-3): 215.18 and 221.016 and 204.96
remaining [B] ([2]; time 182 sec, [B]0 = 250, replicates 1-3): 211.366 and 218.251 and 202.608
remaining [B] ([2]; time 212 sec, [B]0 = 250, replicates 1-3): 208.552 and 215.829 and 199.773
remaining [B] ([2]; time 242 sec, [B]0 = 250, replicates 1-3): 206.279 and 213.378 and 197.222
remaining [B] ([2]; time 273 sec, [B]0 = 250, replicates 1-3): 203.276 and 211.041 and 194.671
remaining [B] ([2]; time 303 sec, [B]0 = 250, replicates 1-3): 200.625 and 209.074 and 192.148
remaining [B] ([2]; time 333 sec, [B]0 = 250, replicates 1-3): 197.649 and 207.193 and 190.108
remaining [B] ([2]; time 364 sec, [B]0 = 250, replicates 1-3): 195.376 and 205.141 and 187.925
remaining [B] ([2]; time 394 sec, [B]0 = 250, replicates 1-3): 193.158 and 203.203 and 186.139
remaining [B] ([2]; time 424 sec, [B]0 = 250, replicates 1-3): 190.588 and 201.351 and 184.155
remaining [B] ([2]; time 454 sec, [B]0 = 250, replicates 1-3): 188.694 and 199.783 and 182.426
remaining [B] ([2]; time 485 sec, [B]0 = 250, replicates 1-3): 186.908 and 198.016 and 181.378
remaining [B] ([2]; time 515 sec, [B]0 = 250, replicates 1-3): 185.014 and 196.591 and 179.79
remaining [B] ([2]; time 545 sec, [B]0 = 250, replicates 1-3): 184.094 and 195.166 and 178.713
Compound: C=CS(=O)(=O)Nc1cc2cc(C(=O)CCC(=O)O)sc2cc1OC [Compound E1]
second-order [1, 3]: 0.0003098 and 0.0002905 and 0.000349
second-order [1, 4]: 0.0003222 and 0.0003146 and 0.0003655
second-order [1, 5]: 0.0003374 and 0.0003303 and 0.0003793
second-order [1, 6]: 0.0003624 and 0.0003513 and 0.0004046
second-order [1, 7]: 0.0003733 and 0.000365 and 0.0004313
second-order ([1]; Time 3794 sec, [B]0 = 250, Replicates 1-3): 0.0003951 and 0.0003787 and 0.000436
second-order ([1]; Time 3974 sec, [B]0 = 250, Replicates 1-3): 0.0004043 and 0.0004098 and 0.0004713
second-order ([1]; Time 4155 sec, [B]0 = 250, Replicates 1-3): 0.0004287 and 0.0004139 and 0.0004754
second-order ([1]; Time 4336 sec, [B]0 = 250, Replicates 1-3): 0.0004451 and 0.0004267 and 0.000504
second-order ([1]; Time 4516 sec, [B]0 = 250, Replicates 1-3): 0.0004586 and 0.0004477 and 0.0005214
second-order ([1]; Time 4697 sec, [B]0 = 250, Replicates 1-3): 0.000471 and 0.0004671 and 0.0005431
second-order ([1]; Time 4878 sec, [B]0 = 250, Replicates 1-3): 0.000487 and 0.0004831 and 0.0005503
second-order ([1]; Time 5058 sec, [B]0 = 250, Replicates 1-3): 0.0005055 and 0.0005004 and 0.0005698
second-order ([1]; Time 5239 sec, [B]0 = 250, Replicates 1-3): 0.0005247 and 0.0005046 and 0.0005919
second-order ([1]; Time 5419 sec, [B]0 = 250, Replicates 1-3): 0.000547 and 0.000531 and 0.0006054
second-order ([1]; Time 5600 sec, [B]0 = 250, Replicates 1-3): 0.0005568 and 0.0005491 and 0.0006296
second-order ([1]; Time 5781 sec, [B]0 = 250, Replicates 1-3): 0.0005744 and 0.0005674 and 0.0006477
second-order ([1]; Time 5961 sec, [B]0 = 250, Replicates 1-3): 0.0005953 and 0.0005931 and 0.0006685
second-order ([2]; Replicate 1, time 576 sec, second-order plot value): 0.003586
second-order ([2]; Replicate 1, time 606 sec, second-order plot value): 0.003734
second-order ([2]; Replicate 2, time 576 sec, second-order plot value): 0.005955
second-order ([2]; Replicate 2, time 606 sec, second-order plot value): 0.006185
second-order ([2]; Replicate 3, time 576 sec, second-order plot value): 0.00489
second-order ([2]; Replicate 3, time 606 sec, second-order plot value): 0.005103
second-order ([2]; time 0 sec, replicates 1-3): 0.000777 and 0.0002138 and 0.0005945
second-order ([2]; time 30 sec, replicates 1-3): 0.001109 and 0.0004543 and 0.0007469
second-order ([2]; time 60 sec, replicates 1-3): 0.00141 and 0.0007862 and 0.0009101
second-order ([2]; time 91 sec, replicates 1-3): 0.001628 and 0.0009622 and 0.001063
second-order ([2]; time 121 sec, replicates 1-3): 0.002097 and 0.001194 and 0.001265
second-order ([2]; time 151 sec, replicates 1-3): 0.002555 and 0.001754 and 0.001392
second-order ([2]; time 182 sec, replicates 1-3): 0.002758 and 0.002017 and 0.001562
second-order ([2]; time 212 sec, replicates 1-3): 0.003017 and 0.002225 and 0.001719
second-order ([2]; time 242 sec, replicates 1-3): 0.003266 and 0.002402 and 0.001885
second-order ([2]; time 273 sec, replicates 1-3): 0.003532 and 0.002649 and 0.002052
second-order ([2]; time 303 sec, replicates 1-3): 0.003812 and 0.002882 and 0.002197
second-order ([2]; time 333 sec, replicates 1-3): 0.004053 and 0.00316 and 0.002343
second-order ([2]; time 364 sec, replicates 1-3): 0.004327 and 0.003387 and 0.002508
second-order ([2]; time 394 sec, replicates 1-3): 0.004565 and 0.003621 and 0.002671
second-order ([2]; time 424 sec, replicates 1-3): 0.004845 and 0.003909 and 0.002833
second-order ([2]; time 454 sec, replicates 1-3): 0.005104 and 0.004135 and 0.002976
second-order ([2]; time 485 sec, replicates 1-3): 0.005268 and 0.00436 and 0.003143
second-order ([2]; time 515 sec, replicates 1-3): 0.005529 and 0.004611 and 0.003284
second-order ([2]; time 545 sec, replicates 1-3): 0.005715 and 0.004739 and 0.003429
